Experimental data from US7527021B2, “Non-invasive drug self-administration system for animals” (University of Virginia Patent Foundation, priority 2003, dated 2009).

Assays:
[1] = Cocaine levels in the brains of self-administering animals (ELISA); conditions: self-administered aerosol
Method: Animals were allowed access to the self administration system of the present invention and the number of nosepokes was recorded using two different concentrations of cocaine (1.8 or 21 mg/kg/spray). Animals were sacrificed within 20 min (animals 3,4) or 1 hr (animals 1,2) of last nosepoke, and all nosepokes occurred within less than 1 hr.

[2] = tested on: mice; assay: Intranasal aerosol cocaine self-administration, nose-poke frequency (FIG. 4); conditions: intra-nasal aerosol; inverted-U dose response, less self-administration at higher and lower concentrations; 4 h sessions
[3] = 20/mg/kg cocaine via IP injection; cited from earlier work

Which “Cocaine conc in brain” value ([1]; animal 1, 6 pokes × 1.8 mg/kg/spray, sacrificed within 1 hr of last nosepoke) does the source give for `COC(=O)[C@H]1[C@@H](OC(=O)c2ccccc2)C[C@@H]2CC[C@H]1N2C` [cocaine] here?
Its value is 0.08 (mg/kg).

And the “Cocaine conc in brain” value ([1]; animal 2, 4 pokes × 1.8 mg/kg/spray, sacrificed within 1 hr of last nosepoke)?
Its value is 0.28 mg/kg.

And the “Cocaine conc in brain” value ([1]; animal 3, 1 poke × 21.0 mg/kg/spray, sacrificed within 20 min of last nosepoke)?
The value was 1.03 mg/kg.

What about the “Cocaine conc in brain” value ([1]; animal 4, 2 pokes × 21.0 mg/kg/spray, sacrificed within 20 min of last nosepoke) of the same molecule?
The value was 2.96 mg/kg.

And the “cocaine concentration at which animals nose-poke most frequently” value [2]?
The value was roughly 0.9 mg/kg/infusion.

And the “cocaine in the brain” value [3]?
The value was 0.96 mg/kg.
